Results reported in patent publication US7531195B2, “Schisandrin B preparation” (priority 2005, dated 2009).
Marks after values point to notes of the source that are not given here.

Legend:
Assay type in all cases: in vivo, rat
Hsp70 = test: Tissue Hsp70 level in young female rats (Western blot); details: 10 mg/kg daily, 15 days
Method: (§1) Female Sprague-Dawley rats (8 weeks old) were maintained under a 12-h dark/light cycle at about 22° C. and allowed food and water ad libitum. Drug treated animals received a daily bolus dose of (−) Schisandrin B, α-lipoic acid (α-LA) or α-tocopherol (α-Toc) at 10, 5 and 70 mg/kg, respectively, for 15 days. The dosages were determined with reference to the equivalent amount of crude herb prescribed for human or the daily recommended intake in health supplements. The control animals received olive oil only. Twenty-four hours after the last dose, the pentobarbital-anesthetized animals were sacrificed by cardiac excision, and brain. heart, liver and skeletal muscle tissues were obtained.
(§2) Hsp25 and Hsp70 levels was estimated by Western blot analysis using specific antibodies (anti-Hsp25, catalog #SPA-801; anti-Hsp70, catalog #SPA-812) from StressGen (Vancouver, BC, Canada) following SDS-PAGE analysis of the nuclear-free tissue homogenates, using a separating gel of 10% acrylamide as described in Ip et. al. (2001). Hsp25/27 and Hsp70 (human recombinant proteins from StressGen) and actin (bovine muscle from Sigma) were used as markers for reference. […] All immuno-blots were analyzed by densitometry, and the amounts (arbitrary units) of Hsp were normalized with reference to actin levels (arbitrary units) in the sample.

Myocardial Mitochondria [1] = test: Myocardial mitochondrial glutathione antioxidant status, old male and female rats; details: liposome-encapsulated in drinking water, 10 mg/kg daily, 35 days
Method: Aged male and female rats (˜12 months old) were administered with liposome-encapsulated (−) Schisandrin B in drinking water for 35 days, with the daily dose estimated to be 10 mg/kg.
Male/Female adult Sprague-Dawley rats (˜12 months old) were maintained under a 12-h dark/light cycle at about 22° C. and allowed food and water ad libitum. Animals were randomly divided into groups, with at least 5 animals in each. In the pretreatment groups, rats were treated with liposome-encapsulated (−) Schisandrin B in drinking water for 35 days, with the estimated daily dose of 10 mg/kg. Control animals received empty liposomes-containing drinking water. Twenty-four hours following the last dosing, hearts were isolated from control or drug-pretreated rats and then subjected to Langendorff perfusion as described below.
(§3) Myocardial tissue samples were rinsed with ice-cold isotonic buffer (50 mM Tris, 0.32 M sucrose, 1 mM Na2EDTA, 0.2 mg/ml soybean trypsin inhibitor, 0.2 mg/ml bacitracine, 0.16 mg/ml benzamidine). Tissue homogenates were prepared by homogenizing 0.8 g of myocardial tissue in 8 ml ice-cold isotonic buffer and the homogenates were used for the preparation of mitochondrial fractions by differential centrifugation, as described in Chiu and Ko (2004). The mitochondrial pellets were resuspended in 1.5 ml of isotonic buffer containing 150 μl of 2 mg/ml soybean trypsin inhibitor and constituted the mitochondrial fractions.
(§4) Aliquots (500 μl) of mitochondrial fractions were taken for measuring mitochondrial GSH level by HPLC methods, using GSH as standards, respectively, as described (Chiu et al 2002). Aliquots (400 μl) of mitochondrial fractions were mixed with 933 μl Triton X-100 solution (0.3%, v/v, in isotonic buffer) and sonicated for 2 min on ice. The mixtures were then subjected to measurements of mitochondrial glutathione reductase (GRD), Se-glutathione peroxidase (GPX) and glutathione S-transferases (GST) activities by spectrophotometric methods, as described in Chiu et al. (2002).

Myocardial Mitochondria [2] = test: Myocardial mitochondrial glutathione antioxidant status, young male and female rats; details: 35 days
Method: Male/Female adult Sprague-Dawley rats (˜10 weeks old) were maintained under a 12-h dark/light cycle at about 22° C. and allowed food and water ad libitum. Animals were randomly divided into groups, with at least 5 animals in each. In the pretreatment groups, rats were treated intragastrically with (−) Schisandrin B at a daily dose of 1 or 10 mg/kg for 35 days. Control animals received oil only (10 ml/kg). Twenty-four hours following the last dosing, hearts were isolated from control or drug-pretreated rats and then subjected to Langendorff perfusion as described below.
as §3, §4

Hsp25 = test: Tissue Hsp25 level in young female rats (Western blot); details: 10 mg/kg daily, 15 days
Method: as §1, §2

[3] = female rats, 1 mg/kg daily oral
[4] = female rats, 10 mg/kg daily oral

Q: For `COc1cc2c(c(OC)c1OC)-c1c(cc3c(c1OC)OCO3)CC(C)C(C)C2` (single isomer, unassigned; (-)) [(−) Sch B, (−) Schisandrin B], which “Heat Shock Protein Level, Hsp70” value (Hsp70; BRAIN) is on record?
A: 0.49 ± 0.05 AU

Q: What about the “Hsp70 level, percent increase vs untreated control” value (from here on “Hsp70 level, percent increase”) (Hsp70; BRAIN) of the same compound?
A: (77%)

Q: What about the “Heat Shock Protein Level, Hsp70” value (Hsp70; HEART) of the same compound?
A: 0.71 ± 0.03 AU

Q: What about the “Hsp70 level, percent increase” value (Hsp70; HEART) of the same compound?
A: (17%)

Q: And the “Heat Shock Protein Level, Hsp70” value (Hsp70; LIVER)?
A: 0.69 ± 0.001 AU

Q: What about the “Hsp70 level, percent increase” value (Hsp70; LIVER) of the same compound?
A: (45%)

Q: And the “Heat Shock Protein Level, Hsp70” value (Hsp70; SKELETAL MUSCLE)?
A: 0.69 ± 0.07 AU

Q: And the “Hsp70 level, percent increase” value (Hsp70; SKELETAL MUSCLE)?
A: (57%)

Q: What about the GPX (Myocardial Mitochondria [1]; old female rats (~12 months)) of the same compound?
A: 44.6 ± 4.29 mU/mg Protein

Q: And the GRD (Myocardial Mitochondria [1]; old female rats (~12 months))?
A: 5.65 ± 0.65 mU/mg protein

Q: What about the GSH (Myocardial Mitochondria [1]; old female rats (~12 months)) of the same compound?
A: 6.80 ± 0.28^b nmol/mg protein

Q: And the GST (Myocardial Mitochondria [1]; old female rats (~12 months))?
A: 14.0 ± 0.45^b mU/mg protein

Q: And the “GRD, percent increase vs untreated control” value (from here on “GRD, percent increase”) (Myocardial Mitochondria [1]; old female rats)?
A: (13%)

Q: And the “GSH, percent increase vs untreated control” value (from here on “GSH, percent increase”) (Myocardial Mitochondria [1]; old female rats)?
A: (31%)

Q: And the GPX (Myocardial Mitochondria [1]; old male rats (~12 months))?
A: 52.2 ± 0.72^a mU/mg Protein

Q: And the GRD (Myocardial Mitochondria [1]; old male rats (~12 months))?
A: 3.72 ± 0.29^a mU/mg protein

Q: And the GSH (Myocardial Mitochondria [1]; old male rats (~12 months))?
A: 4.43 ± 0.09^a nmol/mg protein

Q: And the GST (Myocardial Mitochondria [1]; old male rats (~12 months))?
A: 17.5 ± 0.76 mU/mg protein

Q: And the “GPX, percent increase vs untreated control” value (from here on “GPX, percent increase”) (Myocardial Mitochondria [1]; old male rats)?
A: (15%)

Q: And the “GRD, percent increase” value (Myocardial Mitochondria [1]; old male rats)?
A: (39%)

Q: What about the “GSH, percent increase” value (Myocardial Mitochondria [1]; old male rats) of the same compound?
A: (265%)

Q: And the GPX (Myocardial Mitochondria [2]; [3])?
A: 73.2 ± 4.98^b mU/mg Protein

Q: What about the “GPX, percent increase” value (Myocardial Mitochondria [2]; [3]) of the same compound?
A: (43%)

Q: And the GRD (Myocardial Mitochondria [2]; [3])?
A: 6.30 ± 0.37^b mU/mg protein

Q: What about the “GRD, percent increase” value (Myocardial Mitochondria [2]; [3]) of the same compound?
A: (34%)

Q: And the GSH (Myocardial Mitochondria [2]; [3])?
A: 17.3 ± 1.11^b nmol/mg protein

Q: And the “GSH, percent increase” value (Myocardial Mitochondria [2]; [3])?
A: (60%)

Q: And the GST (Myocardial Mitochondria [2]; [3])?
A: 14.1 ± 0.58^b mU/mg protein

Q: And the “GST, percent increase vs untreated control” value (“GST, percent increase” below) (Myocardial Mitochondria [2]; [3])?
A: (37%)

Q: And the GPX (Myocardial Mitochondria [2]; [4])?
A: 78.3 ± 2.94^b mU/mg Protein

Q: What about the “GPX, percent increase” value (Myocardial Mitochondria [2]; [4]) of the same compound?
A: (53%)

Q: And the GRD (Myocardial Mitochondria [2]; [4])?
A: 8.02 ± 0.55^b mU/mg protein

Q: And the “GRD, percent increase” value (Myocardial Mitochondria [2]; [4])?
A: (71%)

Q: What about the GSH (Myocardial Mitochondria [2]; [4]) of the same compound?
A: 21.6 ± 0.38^b nmol/mg protein

Q: And the “GSH, percent increase” value (Myocardial Mitochondria [2]; [4])?
A: (107%)

Q: And the GST (Myocardial Mitochondria [2]; [4])?
A: 16.9 ± 0.90^b mU/mg protein

Q: What about the “GST, percent increase” value (Myocardial Mitochondria [2]; [4]) of the same compound?
A: (63%)

Q: And the GPX (Myocardial Mitochondria [2]; male rats, 1 mg/kg daily oral)?
A: 77.3 ± 3.78^a mU/mg Protein

Q: What about the “GPX, percent increase” value (Myocardial Mitochondria [2]; male rats, 1 mg/kg daily oral) of the same compound?
A: (48%)

Q: And the GRD (Myocardial Mitochondria [2]; male rats, 1 mg/kg daily oral)?
A: 6.76 ± 0.29 mU/mg protein

Q: And the “GRD, percent increase” value (Myocardial Mitochondria [2]; male rats, 1 mg/kg daily oral)?
A: (26%)

Q: What about the GSH (Myocardial Mitochondria [2]; male rats, 1 mg/kg daily oral) of the same compound?
A: 18.1 ± 1.06^a nmol/mg protein

Q: What about the “GSH, percent increase” value (Myocardial Mitochondria [2]; male rats, 1 mg/kg daily oral) of the same compound?
A: (56%)

Q: What about the GST (Myocardial Mitochondria [2]; male rats, 1 mg/kg daily oral) of the same compound?
A: 12.8 ± 0.10 mU/mg protein

Q: What about the “GST, percent increase” value (Myocardial Mitochondria [2]; male rats, 1 mg/kg daily oral) of the same compound?
A: (65%)

Q: What about the GPX (Myocardial Mitochondria [2]; male rats, 10 mg/kg daily oral) of the same compound?
A: 83.7 ± 2.12^a mU/mg Protein

Q: And the “GPX, percent increase” value (Myocardial Mitochondria [2]; male rats, 10 mg/kg daily oral)?
A: (60%)

Q: And the GRD (Myocardial Mitochondria [2]; male rats, 10 mg/kg daily oral)?
A: 7.59 ± 0.13^a mU/mg protein

Q: What about the “GRD, percent increase” value (Myocardial Mitochondria [2]; male rats, 10 mg/kg daily oral) of the same compound?
A: (42%)

Q: And the GSH (Myocardial Mitochondria [2]; male rats, 10 mg/kg daily oral)?
A: 23.8 ± 1.10^a nmol/mg protein

Q: What about the “GSH, percent increase” value (Myocardial Mitochondria [2]; male rats, 10 mg/kg daily oral) of the same compound?
A: (105%)

Q: What about the GST (Myocardial Mitochondria [2]; male rats, 10 mg/kg daily oral) of the same compound?
A: 14.5 ± 0.36^a mU/mg protein

Q: What about the “GST, percent increase” value (Myocardial Mitochondria [2]; male rats, 10 mg/kg daily oral) of the same compound?
A: (83%)

Q: And the “changes in Hsp25 level in all tissues” value (Hsp25)?
A: No detectable changes

Q: What about the “Heat Shock Protein Level, Hsp25” value (Hsp25; BRAIN) of the same compound?
A: 0.16 ± 0.01 AU

Q: What about the “Heat Shock Protein Level, Hsp25” value (Hsp25; HEART) of the same compound?
A: 0.77 ± 0.05 AU

Q: And the “Heat Shock Protein Level, Hsp25” value (Hsp25; LIVER)?
A: 0.41 ± 0.02 AU

Q: What about the “Heat Shock Protein Level, Hsp25” value (Hsp25; SKELETAL MUSCLE) of the same compound?
A: 0.59 ± 0.03 AU
